The Kinase Knowledgebase extract (Sharma et al. 2016)

What follows are molecules tested against CDK2 (UniProt P24941) (assay: Enzyme Assay).

Structure (SMILES) | Ki
COc1cccc2c(Nc3cc(C)n[nH]3)nc(Sc3ccc(NC(C)=O)cc3)nc12 | 1000 to 20000 nM
CC(=O)Nc1ccc(Sc2nc(Nc3cc(C)n[nH]3)c3ccccc3n2)cc1 | 1000 to 20000 nM
CC(=O)Nc1ccc(Sc2nc(Nc3cc(C)n[nH]3)c3cccc(O)c3n2)cc1 | 1000 to 20000 nM
COc1ccc2c(Nc3cc(C)n[nH]3)nc(Sc3ccc(NC(C)=O)cc3)nc2c1 | 1000 to 20000 nM
CCc1ccc(Nc2nc(Nc3cc(C4CC4)n[nH]3)c3ccccc3n2)cc1 | < 1000 nM
CCCS(=O)(=O)Nc1ccc(Sc2nc(Nc3cc(C)n[nH]3)c3ccccc3n2)cc1 | 1000 to 20000 nM

The remaining lines, values ahead:

Ki | Structure (SMILES)
< 1000 nM | N#CCc1ccc(Nc2nc(Nc3cc(C4CC4)n[nH]3)cc(-c3ccccc3)n2)cc1
< 1000 nM | CC(=O)Nc1ccc(Sc2nc(Nc3cc(C4CC4)n[nH]3)c3ccccc3n2)cc1
< 1000 nM | Cc1cc(Nc2nc(Nc3ccc(CC#N)cc3)nc3ccccc23)[nH]n1
< 1000 nM | c1ccc2c(Nc3cc(C4CC4)n[nH]3)nc(Nc3ccc4ncsc4c3)nc2c1
< 1000 nM | Cc1cc(Nc2nc(Nc3ccc4ncsc4c3)nc3ccccc23)[nH]n1
< 1000 nM | OCCc1ccc(Nc2nc(Nc3cc(C4CC4)n[nH]3)c3ccccc3n2)cc1
< 1000 nM | Cc1cccc(Sc2nc(Nc3cc(C)n[nH]3)c3ccccc3n2)c1
